Publication PMC5972519 (Journal of pharmaceutical and biomedical analysis, 2016)

How the values were obtained:
[1] = Plasma pharmacokinetics of; format: in vivo, Wistar rat; conditions: for concentration at 30 min / concentration at 40 min: male, Wistar, rat, ip; for concentration at 30 min / concentration at 40 min / t1/2 / Cmax / Tmax: plasma; for t1/2 Ratio (A/C): Acute Arm t1/2 / Chronic Arm t1/2 (fold reduction by 14-day dosing); for Plasma concentration Ratio (C/A): Chronic Arm / Acute Arm; for Plasma concentration at 30 min after ip administration: Acute Arm, single ip 40 mg/kg (R,S)-Ket
[2] = Partitioning between whole blood and plasma; format: in vitro ADME; conditions: mouse whole blood, spiked 10, 1 and 0.1 μM, 30 min at 37°C
[3] = Acute: single ip 40 mg/kg (R,S)-Ket
[4] = Acute: single ip 40 mg/kg (R,S)-Ket, 40 mg/kg
[5] = Sub-chronic: Day 14 of ip 40 mg/kg (R,S)-Ket once per day for 14 days

NC1(c2ccccc2Cl)CCC=CC1=O (racemic) [(R,S)-DHNK, (R,S)-dehydronorketamie]
Plasma concentration at any sampling time ([1]; after ip 40 mg/kg (R,S)-Ket, both arms): ≤ 10 ng/mL | Share of compound found in the plasma fraction after incubation with whole blood [2]: < 20%

CNC1(c2ccccc2Cl)CCCCC1=O (racemic) [(R,S)-Ket, (R,S)-Ketamine, reference compound]
Plasma concentration between 5 min and 60 min post-administration [1, 3]: > 1,000 ng/ml | concentration at 30 min ([1]; 40 mg/kg): 2780 ng/mL | concentration at 40 min ([1]; 40 mg/kg): 2600 ng/mL | Share of compound found in the plasma fraction after incubation with whole blood [2]: > 90%

NC1(c2ccccc2Cl)CCCCC1=O (racemic) [(R,S)-norKet, (R,S)-norketamine]
Fold reduction of relative plasma concentration by subchronic dosing ([1]; 30 min post dosing, subchronic versus acute): 1.6 fold | t1/2 Ratio (A/C) [1]: 1.4 | Plasma concentration between 5 min and 60 min post-administration [1, 3]: > 1,000 ng/ml | Plasma concentration Ratio (C/A) ([1]; 30 min post dosing): 0.62 | concentration at 30 min ([1]; 40 mg/kg): 2130 ng/mL | concentration at 40 min ([1]; 40 mg/kg): 1340 ng/mL | Share of compound found in the plasma fraction after incubation with whole blood [2]: > 90%

NC1(c2ccccc2Cl)CC(O)CCC1=O [(2S,4R;2R,4S)-HNK, (2S,4R;2R,4S)-hydroxynorketamine]
Plasma concentration at 30 min after ip administration [1]: 218 ng/mL | Plasma concentration between 5 min and 60 min post-administration [1, 3]: > 50 ng/mL | Plasma concentration at 10 min post-dosing [1, 4]: 257 ± 195 ng/mL | Plasma concentration Ratio (C/A) ([1]; 30 min post dosing): 1.7 | Plasma concentration Ratio (C/A) ([1]; 30 min post dosing, listed as (2S,4R,2R,4S)-HNK): 1.73 | t1/2 [1, 5]: 5.0 h

NC1(c2ccccc2Cl)CC(O)CCC1=O [(2S,4S;2R,4R)-HNK]
Plasma concentration between 5 min and 60 min post-administration [1, 3]: > 50 ng/mL | Plasma concentration at 10 min post-dosing [1, 4]: 196 ± 132 ng/mL

NC1(c2ccccc2Cl)CCC(O)CC1=O [(2S,5S;2R,5R)-HNK]
Plasma concentration at 10 min post-dosing [1, 3]: 181 ± 141 ng/mL | Plasma concentration between 5 min and 60 min post-administration [1, 3]: > 50 ng/mL

NC1(c2ccccc2Cl)CCCC(O)C1=O [(2S,6R;2R,6S)-HNK, (2S,6R;2R,6S)-hydroxynorketamine]
Plasma concentration at 30 min after ip administration [1]: 172 ng/mL | Plasma concentration at 10 min post-dosing [1, 3]: 252 ± 81 ng/mL | Plasma concentration between 5 min and 60 min post-administration [1, 3]: > 50 ng/mL | Plasma concentration Ratio (C/A) ([1]; 30 min post dosing): 4.5 | Plasma concentration Ratio (C/A) ([1]; 30 min post dosing, listed as (2S,6R,2R,6S)-HNK): 4.53 | Cmax [1, 5]: 2101 ng/mL | t1/2 [1, 5]: 1.3 h

N[C@@]1(c2ccccc2Cl)CCC[C@@H](O)C1=O [(2S,6S;2R,6R)-HNK, (2S,6S;2R,6R)-hydroxynorketamine]
t1/2 Ratio (A/C) [1]: 1.2 | Plasma concentration at 30 min after ip administration [1]: 4327 ng/mL | Plasma concentration between 5 min and 60 min post-administration [1, 3]: > 1,000 ng/ml | Cmax [1, 3]: 4641 ± 2020 ng/mL | Tmax [1, 3]: 0.61 ± 0.35 h | t1/2 ([1]; Acute: single ip 40 mg/kg (R,S)-Ket, male Wistar rats): 13.2 ± 3.7 h | Plasma concentration Ratio (C/A) ([1]; 30 min post dosing): 1.4 | Plasma concentration Ratio (C/A) ([1]; 30 min post dosing, listed as (2S,6S,2R,6R)-HNK): 1.42 | Plasma concentration at 72 hr post-administration ([1]; Sub-chronic, Day 14 dose): 15 ± 7 ng/mL | Cmax [1, 5]: 6491 ± 3008 ng/mL | Tmax [1, 5]: 0.78 ± 0.19 h | t1/2 [1, 5]: 11.1 ± 1.8 h
